SMILES strings stand for the structures.

Here are results for 33 compounds from ChEMBL document CHEMBL1157539, “Thousands of chemical starting points for antimalarial lead identification” (Nature, 2010).

This assay concerns Plasmodium falciparum. The assay is described as follows: GSK_TCMDC: Inhibition of Plasmodium falciparum 3D7 in whole erythrocytes, using parasite LDH activity as an index of growth. In kind it is functional, organism-based. As to conditions: Plasmodium falciparum, 3D7.

In the case of `COc1ccc(NS(=O)(=O)c2ccccc2Br)cc1N1CCN(C)CC1`, the XC50 was 967 nM.
The value for `CC(=O)c1sc(NC(=O)Nc2ccc(C)cc2C)nc1C` was 906 nM; that for `CCOC(=O)CCCc1cc(NC2CCN(C)CC2)nc(Nc2ccc(C)cc2)n1` was 263 nM; that for `O=C(c1cccc(Cl)c1)N1CCN(c2ccc([N+](=O)[O-])c(NC3CC3)c2)CC1` was 867 nM.
As for `COc1ccc2nc3cc(Cl)ccc3c(NCCCN3CCNCC3)c2c1`, the XC50 stood at 232 nM.
In turn, `CC(Nc1ccc2c(c1)CCC2)C(=O)Nc1cc(C(F)(F)F)ccc1N1CCOCC1` (stereo not drawn) showed an XC50 of 85.3 nM.
The value for `CC(C)CCN1CCCN(Cc2cccc(NC(=O)c3ccc(Cl)c(Cl)c3)c2)CC1` was 1020 nM.
The compound `CC(C)(C)OC(=O)NCCc1cccc(-c2c[nH]c3ncc(-c4cccc(NS(C)(=O)=O)c4)cc23)c1` came in with an XC50 of 684 nM.
For `CC1CCN(Cc2c(O)ccc3c(CN4CCC(C)CC4)c(O)ccc23)CC1`, the XC50 was 133 nM.
`Cc1cccc2nc(-c3ccc(-c4ccc(CNCCCN5CCCC5=O)cc4)cc3)[nH]c12` returned an XC50 of 632 nM.
The compound `COc1cccc(CC(=O)N2CCC(n3c(C)nc4ccc(C)cc43)CC2)c1` showed an XC50 of 114 nM.
Consider `COc1ccc(-c2cc(C(=O)N[C@@H](Cc3ccccc3)C(=O)NCCN3CCCCC3)ccc2O)cc1`, for which the XC50 came to 792 nM.
In the case of `O=C(NC1CCC(CN2CCC(c3c[nH]c4ccccc34)CC2)CC1)c1cc2cccc([N+](=O)[O-])c2[nH]1` (stereo not drawn), the XC50 worked out at 341 nM.
The value for `CCN(CC)CCNc1c2ccc(Cl)cc2nc2ccc(OC)nc12` was 736 nM; that for `O=C(Cn1c(CCc2cccc(F)c2F)nc(=O)c2ccccc21)N(Cc1ccc(-c2ccc(C(F)(F)F)cc2)cc1)C1CCN(C2CCOCC2)CC1` was 745 nM.
The same measure for `C=C[C@]1(C)C[C@@H](OC(=O)CNC[C@@H](O)CN2C[C@H](c3ccnc4ccc(OC)nc34)OC2=O)[C@@]2(C)[C@@H]3C(=O)CC[C@@]3(CC[C@@H]2C)[C@@H](C)[C@@H]1O`: 948 nM; for `CCN(CC)CCN(Cc1ccc(-c2ccc(C(F)(F)F)cc2)cc1)C(=O)Cn1cc(CCCCc2cccc(F)c2F)c(=O)c2ccccc21`: 883 nM; for `CS(=O)(=O)c1ccc(-c2cnc(N)c(-c3ccc(O)cc3)c2)cc1`: 1360 nM.
Regarding `C#CCNCc1ccc(-c2ccc(-c3nc4cc(C(F)(F)F)ccc4[nH]3)s2)cc1`, the XC50 came out at 744 nM.
The compound `Fc1cccc(C=NN=c2cc[nH]c3ccccc23)c1` came in with an XC50 of 839 nM.
For the compound `CCCCCn1c(Sc2ccc(C#N)c([N+](=O)[O-])c2)nnc1-c1cc(OC)cc(OC)c1`, the XC50 came to 956 nM.
Consider `COc1ccccc1C1CCN(C2CCC(NC(=O)c3cc(-c4ccc(Cl)cc4)cs3)CC2)CC1` (stereo not drawn), for which the XC50 was found to be 383 nM.
`CC1(C)NC(N)=NC(=N)N1OCCSCc1cc(Cl)sc1Cl` displayed an XC50 of 3.2 nM.
The value for `CO/C(=C\C=C\c1cc2cc(Cl)c(Cl)cc2[nH]1)C(=O)Nc1ccc(NCCN(C)C)nc1` was 765 nM; that for `N#Cc1ccc(N(CC(=O)NCCc2ccccc2)CC2CC2)c2ccccc12` was 734 nM; that for `CCCCN(CCCC)C(=O)CC(O)c1cc2c(Cl)cc(Cl)cc2c2cc(C(F)(F)F)ccc12` (stereo not drawn) was 1210 nM.
Turning to `O=C(Nc1cccc(Cl)c1Cl)N1CCc2cc3nccc(N4CCN5CCC[C@H]5C4)c3cc21`, the XC50 came out at 1040 nM.
In turn, `Cc1ccc2c(c1)C1(CC(=O)N(CCc3scnc3C)C1=O)C(=O)N2Cc1ccccc1` (stereo not drawn) showed an XC50 of 1250 nM.
The same measure for `CN1CCC(NCc2cccc(-c3ccc(S(=O)(=O)NCCN4CCCC4)s3)c2)CC1`: 928 nM.
On to `c1ccc2c(c1)ncc1c3ccccc3[nH]c21`, for which the XC50 was 866 nM.
`O=C(c1cccs1)N(Cc1cccc(-c2ccc(CNCCc3ccccc3)cc2)c1)C1CCN(Cc2ccccc2)CC1` came in with an XC50 of 860 nM.
The same measure for `C[C@@H](COc1ccccc1)NCC(O)c1ccc([N+](=O)[O-])c(OCc2ccccc2)c1` (stereo partly drawn): 994 nM; for `Cc1cc(Nc2c(C(N)=O)cnc3cc(-c4ccoc4)ccc23)ccc1N1CCN(C)CC1`: 797 nM.
